Measured values taken from patent US5648382A, “Cyclohexane compounds” (Adir et Compagnie, priority 1995, dated 1997).

tested on: chicken embryo chorio-allantoic membrane; experiment: Inhibition of neovascularization of chicken embryo chorioallantoic membrane; type: in vivo; details: avascular zone greater than 4 mm in diameter, 48 hours after disk placed on CAM on day 6
Protocol: Example B: Inhibition of Neovascularization of Chicken Embryo Chorioallantoic Membrane
This test was carried out with chicken embryos in the manner described above (Crum R., Szabo S. and Folkman J., Science, (1985), 230, 1375-1378). The fertilized eggs are incubated at 37° C. (D0). A pocket of air is created by removing 1 ml of albumin (D3), then a window is cut from the shell (D4) and the vitelline membrane is removed in order to separate the chorio-allantoic membrane (CAM).
The products to be tested are dissolved in ethanol and placed on methylcellulose disks which are dried and placed on the CAM on day 6. From 8 to 16 eggs are used per group. The zone situated round the disk is then examined 48 hours later. The eggs having an avascular zone greater than 4 mm in diameter are counted and the results are expressed as a percentage of eggs having an avascular zone.

`CC1OC1(C)[C@@]1(O)C[C@H](OC(=O)NC(=O)CCl)CC[C@]12CO2` (relative stereo) [Example 6, (3S*, 4R*, 6R*)-6-Chloroacetylcarbamoyloxy-4-hydroxy-4-(2,3-dimethyloxiran-2-yl)-1-oxa-spiro[2.5]octane] and `CC1([C@]23O[C@H]2[C@@H](OC(=O)NC(=O)CCl)CC[C@]32CO2)CO1` (single isomer, unassigned) [Example 17 Diastereoisomer A, (1R*,2S*,5S*,6S*)-5-Chloroacetylcarbamoyloxy-1-[(2S* and 2R*)-(2-methyloxiran-2-yl)]-2-(2-spiro-oxiranyl)-7-oxabicyclo[4.1.0]heptan] are within error of each other in “% of eggs having an avascular zone” value: 79 ± 9% for the first, 74 ± 7% for the second.

`CC1OC1(C)[C@@]1(O)C[C@H](OC(=O)NC(=O)CCl)CC[C@]12CO2` (relative stereo) [Example 7, (3S*; 4R*, 6R*)-6-Chloroacetylcarbamoyloxy-4-hydroxy-4-(2,3-di-methyl-2-oxiranyl)-1-oxa-spiro[2.5]octane] and `CC1([C@]23O[C@H]2[C@H](OC(=O)NC(=O)CCl)CC[C@]32CO2)CO1` (single isomer, unassigned) [Example 30 Diastereoisomer A, (1R*,2S*,5R*,6S*)-5-Chloroacetylcarbamoyloxy-1-[(2S* and 2R*)-(2-methyloxiran-2-yl)]-2-(2-spiro-oxiranyl)-7-oxabicyclo[4.1.0]heptan] are within error of each other in “% of eggs having an avascular zone” value: 81 ± 10% for the first, 75 ± 7% for the second.

`O=C(CCl)NC(=O)O[C@@H]1CC[C@]2(CO2)[C@@](O)(CCCCCc2ccccc2)[C@@H]1Br` (relative stereo) [Example 10, (3S*, 4S*, 5R*, 6R*)-5-Bromo-6-chloroacetylcarbamoyloxy-4-hydroxy-4-(5-phenylpentyl)-1-oxa-spiro[2.5]octane] and `O=C(CCl)NC(=O)O[C@@H]1CC[C@]2(CO2)[C@@]2(CCCCCc3ccccc3)O[C@@H]12` (relative stereo) [Example 18, (1S*,2S*,5R*,6S*)-5-Chloroacetylcarbamoyloxy-2-(2-spiro-oxiranyl)-1-(5-phenyl-pentyl)-7-oxabicyclo[4.1.0]heptane] are within error of each other in “% of eggs having an avascular zone” value: 73 ± 11% for the first, 69 ± 6% for the second.

First: C[C@@]1(OC(=O)NC(=O)CCl)CC[C@@H](OC(=O)NC(=O)CCl)[C@@H]2O[C@@]21CCCCCc1ccccc1 (relative stereo) [Example 19, (1S*,2R*,5R,*6S*)-2,5-Dichloroacetylcarbamoyloxy-2-methyl-1-(5-phenylpentyl)-7-oxabicyclo[4.1.0]heptane]
Second: O=C(CCl)NC(=O)O[C@H]1CC[C@]2(CO2)[C@@](CCCCCc2ccccc2)(OC(=O)NC(=O)CCl)C1 (relative stereo) [Example 28, (3S*,4S*6S*)-4,6-Dichloroacetylcarbamoyloxy-4-(5-phenylpentyl)-1-oxa-spiro[2.5]octane]
The “% of eggs having an avascular zone” value of the first is lower: 76 ± 9% for the first, 90 ± 4% for the second.

`CC1([C@@]23OC(=O)O[C@@H]2[C@H](OC(=O)NC(=O)CCl)CC[C@]32CO2)CO1` (relative stereo) [Example 23, (3S*,4S*,5R*,6R*)-6-Chloroacetylcarbamoyloxy-4-(2-methyl-oxiran-2-yl)-1-oxa-spiro[2.8]benzo[1.3]dioxol-2-one] and `CC1([C@]23O[C@H]2[C@H](OC(=O)NC(=O)CCl)CC[C@]32CO2)CO1` (single isomer, unassigned) [Example 30 Diastereoisomer B, (1R*,2S*,5R*,6S*)-5-Chloroacetylcarbamoyloxy-1-[(2S* and 2R*)-(2-methyloxiran-2-yl)]-2-(2-spiro-oxiranyl)-7-oxabicyclo[4.1.0]heptan] are within error of each other in “% of eggs having an avascular zone” value: 78 ± 7% for the first, 68 ± 5% for the second.

`C=C(C)[C@]12O[C@H]1[C@H](OC(=O)NC(=O)CCl)CC[C@]21CO1` (relative stereo) [Example 29, (1S*,2S*,5R*,6S*)-5-Chloroacetylcarbamoyloxy-1-isopropenyl-2(2-spiro-oxiranyl)-7-oxabicyclo[4.1.0]heptane] and `CC(C)CCCC12OC1C(OC(=O)NC(=O)CCl)CCC21CO1` (stereo not drawn) [Example 21, 5-Chloroacetylcarbamoyloxy-2-(2-spiro-oxiranyl)-1-(4-methyl-pentyl)-7-oxabicyclo[4.1.0]heptane] are within error of each other in “% of eggs having an avascular zone” value: 66 ± 6% for the first, 76 ± 6% for the second.

With `O=C(CCl)NC(=O)O[C@H]1CC[C@]2(CO2)[C@](O)(C2OC2CCCc2ccccc2)[C@H]1Br` (single isomer, unassigned) [Example 13] the “% of eggs having an avascular zone” value was 70 ± 16%.

tested on: tumour; experiment: Antitumour activity in mice, subcutaneous tumour implant; type: in vivo; details: 30 mg/kg, i.p., day 1 to day 12; tumour weight on day 13
Protocol: Example C: Antitumour Activity
The antitumour activity of the compounds of the invention was studied in accordance with the protocol described by R. I. Geran et al, Cancer Chemotherapy Reports, (1972), Part 3, pages 3 et seq.
Mice were divided at random into treated groups (11 mice per group) and a control group of 40 mice.
Tumour fragments were implanted on day 0 (subcutaneous implant). The compounds to be tested were administered for 12 days (day 1 to day 12) by the i.p. route.
The average weight of the tumour was determined on day 13 after implantation. The percentage inhibition was calculated in accordance with the following formula: [formula] As an example, the compound of Example 27 gave the following results: […]

With `O=C(CCl)NC(=O)O[C@@H]1CC[C@]2(CO2)[C@](CCCCCc2ccccc2)(OC(=O)NC(=O)CCl)C1` (relative stereo) [Example 27, (3S*,4R*,6R*)-4,6-Dichloroacetylcarbamoyloxy-4-(5-phenylpentyl)-1-oxa-spiro[2.5]octane] the “% inhibition (tumour weight)” value was 56%.

same assay, conditions: 60 mg/kg, i.p., day 1 to day 12; tumour weight on day 13

For `O=C(CCl)NC(=O)O[C@@H]1CC[C@]2(CO2)[C@](CCCCCc2ccccc2)(OC(=O)NC(=O)CCl)C1` (relative stereo) [Example 27, (3S*,4R*,6R*)-4,6-Dichloroacetylcarbamoyloxy-4-(5-phenylpentyl)-1-oxa-spiro[2.5]octane], the “% inhibition (tumour weight)” value was 82%.
